What was measured:
[1] = test system: A/South Korea/90207/2020 WT virus (NA-H275, PA-I38); assay: microbe, parasite or virus in culture; assay type: cell-based, influenza A(H1N1)pdm09 virus; conditions: Influenza A virus, MDCK, 24 h, read-out: EC50 nM ± SD (column headed IC50; footnote: EC50)
[2] = target: neuraminidase of A/South Korea/90207/2020 WT virus (NA-H275, PA-I38) (Influenza A virus (A(H1N1)pdm09), UniProt A0A0X9QTS2); assay type: biochemical

| SMILES | EC50 [1] [nM] | IC50 [2] [nM] |
| --- | --- | --- |
| O=C1c2c(O)c(=O)ccn2N([C@@H]2c3ccccc3SCc3c2ccc(F)c3F)[C@@H]2COCCN12 [Baloxavir, Baloxavir acid] | 1 ± 0.2 |  |
| CCC(CC)[C@H](NC(C)=O)[C@@H]1[C@H](O)[C@@H](C(=O)O)C[C@H]1N=C(N)N [Peramivir, peramivir] |  | 0.16 |

Reference: article PMC9517990 (Communications Biology, 2022)
